According to PubChem BioAssay (NCI):
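Step 1: Grow cells in 96-well plates. Step 2: Expose to compound for 48 hours at 5 concentrations. Step 3: Interpolate endpoints linearly; if unreached, use highest concentration. At the TGI there is no net growth.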

Legend:
Assay in all cases: NCI-60 cell line screen, 48 h
PC-3 prostate = test system: PC-3 prostate
M14 melanoma = test system: M14 melanoma
LOX IMVI melanoma = test system: LOX IMVI melanoma
HCT-15 colon = test system: HCT-15 colon
RXF 393 renal = test system: RXF 393 renal
T-47D breast = test system: T-47D breast
MOLT-4 leukemia = test system: MOLT-4 leukemia
MCF7 breast = test system: MCF7 breast
ACHN renal = test system: ACHN renal
SK-MEL-5 melanoma = test system: SK-MEL-5 melanoma
HCT-116 colon = test system: HCT-116 colon
MALME-3M melanoma = test system: MALME-3M melanoma
NCI-H522 lung = test system: NCI-H522 lung

SMILES: CC(C)CCNC(=O)c1ccc(CNC(=O)/C=C/c2ccc(-c3ccccc3[N+](=O)[O-])o2)cc1
- TGI (PC-3 prostate): > 100 µM
- TGI (M14 melanoma): > 100 µM
- TGI (LOX IMVI melanoma): > 100 µM
- TGI (HCT-15 colon): > 100 µM
- TGI (RXF 393 renal): > 100 µM
- TGI (T-47D breast): 63.5 µM
- TGI (MOLT-4 leukemia): > 100 µM
- TGI (MCF7 breast): > 100 µM
- TGI (ACHN renal): > 100 µM
- TGI (SK-MEL-5 melanoma): > 100 µM
- TGI (HCT-116 colon): > 100 µM

SMILES: CCCCc1ccc(Nc2nc(Cl)c3[nH]cnc3n2)cc1
- TGI (M14 melanoma): 41.5 µM
- TGI (LOX IMVI melanoma): 26.6 µM
- TGI (HCT-15 colon): 34.4 µM
- TGI (RXF 393 renal): 31.6 µM
- TGI (MALME-3M melanoma): 42.2 µM
- TGI (T-47D breast): 37.2 µM
- TGI (MOLT-4 leukemia): > 100 µM
- TGI (MCF7 breast): 37.9 µM
- TGI (ACHN renal): > 100 µM
- TGI (SK-MEL-5 melanoma): 31.6 µM
- TGI (HCT-116 colon): 29.9 µM
- TGI (NCI-H522 lung): 65.3 µM

SMILES: Cc1sc(N=Nc2c(O)[nH]c3ccccc23)nc1-c1ccccc1
- TGI (M14 melanoma): 65.2 µM
- TGI (LOX IMVI melanoma): 36 µM
- TGI (HCT-15 colon): 27.9 µM
- TGI (RXF 393 renal): 34.9 µM
- TGI (T-47D breast): 33.1 µM
- TGI (MOLT-4 leukemia): 65.4 µM
- TGI (MCF7 breast): 45.1 µM
- TGI (ACHN renal): 31.1 µM
- TGI (SK-MEL-5 melanoma): 33.9 µM
- TGI (HCT-116 colon): 35.1 µM

SMILES: CN1c2ccccc2C2c3c(O)ccc(O)c3C=C([N+](=O)[O-])C21 (stereo not given)
- TGI (PC-3 prostate): 4.79 µM
- TGI (M14 melanoma): 1.44 µM
- TGI (HCT-15 colon): 6.41 µM
- TGI (RXF 393 renal): 15.5 µM
- TGI (T-47D breast): > 100 µM
- TGI (MOLT-4 leukemia): > 27.4 µM
- TGI (MCF7 breast): 0.346 µM
- TGI (ACHN renal): 1.97 µM
- TGI (SK-MEL-5 melanoma): 1.89 µM
- TGI (HCT-116 colon): 0.651 µM
- TGI (NCI-H522 lung): 0.17 µM

SMILES: Cn1cc(-c2ccc(CCOC3CCCCO3)cc2)c2c(C#N)cccc21 (stereo not given)
- TGI (PC-3 prostate): > 100 µM
- TGI (M14 melanoma): > 100 µM
- TGI (LOX IMVI melanoma): > 100 µM
- TGI (HCT-15 colon): > 100 µM
- TGI (RXF 393 renal): > 100 µM
- TGI (MALME-3M melanoma): > 100 µM
- TGI (T-47D breast): > 100 µM
- TGI (MOLT-4 leukemia): > 100 µM
- TGI (MCF7 breast): > 100 µM
- TGI (SK-MEL-5 melanoma): > 100 µM
- TGI (HCT-116 colon): > 100 µM
- TGI (NCI-H522 lung): > 100 µM

SMILES: Cc1cc2c3c(ccc4ncc(c43)CN2c2ccc(NS(C)(=O)=O)cc2)[nH]1
- TGI (PC-3 prostate): > 100 µM
- TGI (M14 melanoma): > 100 µM
- TGI (LOX IMVI melanoma): > 100 µM
- TGI (HCT-15 colon): > 100 µM
- TGI (RXF 393 renal): > 100 µM
- TGI (MOLT-4 leukemia): > 100 µM
- TGI (MCF7 breast): > 100 µM
- TGI (ACHN renal): > 100 µM
- TGI (SK-MEL-5 melanoma): > 100 µM
- TGI (HCT-116 colon): 44.1 µM
- TGI (NCI-H522 lung): > 100 µM

SMILES: CC(C)NC(C)Cc1ccccc1 (stereo not given)
- TGI (M14 melanoma): > 100 µM
- TGI (LOX IMVI melanoma): > 100 µM
- TGI (HCT-15 colon): > 100 µM
- TGI (RXF 393 renal): > 100 µM
- TGI (MALME-3M melanoma): > 100 µM
- TGI (ACHN renal): > 100 µM
- TGI (SK-MEL-5 melanoma): > 100 µM
- TGI (HCT-116 colon): > 100 µM
- TGI (NCI-H522 lung): > 100 µM

SMILES: Nc1nc(Cl)c2ncn(Cc3ccccc3CCl)c2n1
- TGI (PC-3 prostate): 68.1 µM
- TGI (M14 melanoma): 40.1 µM
- TGI (LOX IMVI melanoma): 21.9 µM
- TGI (HCT-15 colon): 7.45 µM
- TGI (MALME-3M melanoma): 10.2 µM
- TGI (T-47D breast): 83.9 µM
- TGI (MOLT-4 leukemia): > 100 µM
- TGI (MCF7 breast): 24.3 µM
- TGI (ACHN renal): 22 µM
- TGI (SK-MEL-5 melanoma): 26.5 µM
- TGI (HCT-116 colon): > 100 µM
- TGI (NCI-H522 lung): 9.41 µM

SMILES: CNC(Cc1ccccc1)c1cccc(OC)c1O (stereo not given)
- TGI (PC-3 prostate): > 100 µM
- TGI (M14 melanoma): > 100 µM
- TGI (LOX IMVI melanoma): > 100 µM
- TGI (HCT-15 colon): > 100 µM
- TGI (RXF 393 renal): > 100 µM
- TGI (MALME-3M melanoma): > 100 µM
- TGI (T-47D breast): 60.4 µM
- TGI (MOLT-4 leukemia): > 100 µM
- TGI (ACHN renal): > 100 µM
- TGI (SK-MEL-5 melanoma): > 100 µM
- TGI (HCT-116 colon): > 100 µM
- TGI (NCI-H522 lung): > 100 µM

SMILES: CC1=NN(C(=O)c2ccc(Cl)cc2)C(=O)/C1=C/c1cccc(O)c1
- TGI (M14 melanoma): > 100 µM
- TGI (LOX IMVI melanoma): > 100 µM
- TGI (HCT-15 colon): > 100 µM
- TGI (RXF 393 renal): > 100 µM
- TGI (MALME-3M melanoma): > 100 µM
- TGI (MOLT-4 leukemia): > 100 µM
- TGI (ACHN renal): > 100 µM
- TGI (SK-MEL-5 melanoma): > 100 µM
- TGI (HCT-116 colon): > 100 µM
- TGI (NCI-H522 lung): > 100 µM
